The target of one series is human motilin receptor (Homo sapiens, UniProt O43193). Description: Aequorin functional assay (motilin receptor). It is filed as cell-based. As to conditions: functional activity, antagonist testing vs motilin 0.5 nM (EC80). The arrangement: host or cells: CHO-K1 cells co-expressing Gα16 and mitochondrially targeted Aequorin.
The next series has as its system Caco-2 cells. As to the kind of experiment: Caco-2 permeability. It is filed as in vitro ADME, human. The source says:
H. Determination of Caco-2 Permeability
The Caco-2 cell line, derived from a human colorectal carcinoma, has become an established in vitro model for the prediction of drug absorption across the human intestine. (Sun, D.; Yu, L. X.; Hussain, M. A.; Wall, D. A.; Smith, R. L.; Amidon, G. L. Curr. Opin. Drug Discov. Devel. 2004, 7, 75-85; Bergstrom, C. A. Basic Clin. Pharmacol. Toxicol. 2005, 96, 156-61; Balimane, P. V.; Han, Y. H.; Chong, S. AAPS J 2006, 8, E1-13; Shah, P.; Jogani, V.; Bagchi, T.; Misra, A. Biotechnol. Prog. 2006, 22, 186-198) When cultured on semi-permeable membranes, Caco-2 cells differentiate into a highly functionalized epithelial barrier with remarkable morphological and biochemical similarity to the small intestinal columnar epithelium. Fully differentiated cell monolayers can be used to assess the membrane transport properties of novel compounds.
Permeability across the Caco-2 cell layer was determined by growing the cells on a membrane placed between two (donor and acceptor) chambers. Drug candidates are typically added to the apical (A) side of the cell layer and their appearance in the basolateral (B) side is measured over incubation time. Permeability in this direction represents intestinal absorption. Permeability may also be determined from the basolateral to the apical side of the Caco-2 cell. […]
Permeability (10 μM) for compounds of the invention in the apical to basolateral and basolateral to apical direction were tested in duplicate. Samples will be collected from the donor and acceptor chambers at the beginning (0 min) and following 60 min of incubation at 37° C. and stored frozen at −70° C. until bioanalysis. Samples for each test compound generated from the Caco-2 permeability assay were further analyzed by LC-MS-MS. The permeability of [^3H]-mannitol and [^3H]-propranolol were determined in parallel as controls.
The permeability coefficient (Papp) of each compound and radiolabeled standard was determined using the following equation:
[formula] where dQ/dT represents the permeability rate, Ci denotes the initial concentration in the donor compartment, and A represents the surface area of the filter. Ci is determined from the mean concentration of duplicate samples taken prior to addition to the donor compartment. Permeability rates were calculated by plotting the cumulative amount of compound measured in the acceptor compartment over time and determining the slope of the line by linear regression analysis. The duplicate and mean apical to basolateral and basolateral to apical Papp's were reported for each compound and standard.

Some results are limits rather than exact numbers.

Experimental findings from US9133235B2, “Macrocyclic antagonists of the motilin receptor for treatment of gastrointestinal dysmotility disorders” (Ocera Therapeutics, Inc., priority 2006, dated 2015) are described below.

Chain of human motilin receptor (O43193 whole entry): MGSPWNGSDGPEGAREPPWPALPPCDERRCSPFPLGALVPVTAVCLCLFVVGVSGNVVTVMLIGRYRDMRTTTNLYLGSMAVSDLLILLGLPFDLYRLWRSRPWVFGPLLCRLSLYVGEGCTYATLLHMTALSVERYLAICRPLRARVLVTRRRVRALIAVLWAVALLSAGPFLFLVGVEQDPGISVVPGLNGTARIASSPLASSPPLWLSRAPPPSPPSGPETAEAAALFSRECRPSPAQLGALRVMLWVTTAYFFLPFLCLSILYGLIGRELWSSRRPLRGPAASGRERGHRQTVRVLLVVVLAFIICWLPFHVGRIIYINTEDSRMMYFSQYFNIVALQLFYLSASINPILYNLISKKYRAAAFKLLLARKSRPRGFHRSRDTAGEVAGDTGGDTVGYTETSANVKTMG

On human motilin receptor, `CCC[C@@H]1NC(=O)[C@@H](C(C)C)NC(=O)[C@@H](Cc2ccc(O)c(Cl)c2)N[C@@H](C)COc2ccccc2CCCNC1=O` [Compound 552] registered an IC50 not above 1 nM.
Turning to `CC(C)[C@H]1NC(=O)[C@@H](Cc2cccc(C(F)(F)F)c2)NCCOc2ccccc2CCCNC(=O)[C@H](CN(C)C)NC1=O` [Compound 502], the “Papp A to B” value in the series on Caco-2 cells (10 μM, apical to basolateral, 60 min, 37° C.) is on record as 5 cm/sec × 10^−6. Besides, in the series on Caco-2 cells (10 μM, basolateral to apical, 60 min, 37° C.), the “Papp B to A” value is 11 cm/sec × 10^−6. For the same compound, in the series with Caco-2 cells (ratio of Papp), the “B to A/A to B” value came out at 2. The same compound showed an IC50 at human motilin receptor not above 10 nM.
